Source: US11970462B1, “Ethyl 3-[4,4-bis(4-chlorophenyl)-2,5-dioxoimidazolidin-1-yl]propanoate as an antimicrobial compound” (KING FAISAL UNIVERSITY, priority 2024, dated 2024)

Key:
Assay type in all cases: cell-based
Details in all cases: after 10, 20, 40 and 60 minutes at all dilutions 1:100, 1:200, 1:400, 1:800
Staphylococcus aereus = assay: Antimicrobial testing by agar dilution, St. Aereus
Procedure: (§1) The antimicrobial properties of the ethyl 3-[4,4-bis(4-chlorophenyl)-2,5-dioxoimidazolidin-1-yl]propanoate were studied by the method of agar dilution. Test solutions of each compound was prepared in concentration of 1% using dimethylformamide as a solvent then they are diluted in physiological solution to obtain the final experimental dilutions 1:100, 1:200, 1:400, 1:800. The effect of these substances are compared with furacillin in a controlable study. The testing microbes used were gram positive bacteria Staphylococcus aereus, gram negative bacteria Escherichia Coli, Pseudomonas aeruginosa and Candida albicans fungi were taken. The experiments used for this survey were meat-pentonlu agar (EPA) for cultivation of bacteria and Saburo environment for fungi. Each experiment used 1 ml of test solution on each plate 500 min. Add 2 drops of emulsified with microbes feel. All experimental samples were taken from the agar after 10, 20, 40, 60 minutes in the environment on the basis of Patrk planted. Bacteria were cultivated at a temperature of 37° C. for 1 day and the mushroom was kept in a thermostat for 2 hours at a temperature of 28° C. in the. Then results were checked.

Pseudomonas aeruginosa = assay: Antimicrobial testing by agar dilution, Ps. aeruginosa
Procedure: as §1

Escherichia Coli = assay: Antimicrobial testing by agar dilution, E. Coli
Procedure: as §1

Candida albicans = assay: Antimicrobial testing by agar dilution, Candida albicans
Procedure: as §1

CCOC(=O)CCN1C(=O)NC(c2ccc(Cl)cc2)(c2ccc(Cl)cc2)C1=O [ethyl 3-[4,4-bis(4-chlorophenyl)-2,5-dioxoimidazolidin-1-yl]propanoate]
higher inhibition activity: inhibition activity (in words), Staphylococcus aereus (Staphylococcus aereus) | inhibition activity (in words), Pseudomonas aeruginosa (Pseudomonas aeruginosa) | inhibition activity (in words), Escherichia Coli (Escherichia Coli) | inhibition activity (in words), Candida albicans (Candida albicans)
